Organism: Homo sapiens
Assay: Inhibition of human DNA topoisomerase-2 at 100 uM after 30 mins by agarose gel electrophoresis

inhibition: 90.3%
Structure (SMILES): COc1cc([C@@H]2c3cc4c(cc3[C@@H](O[C@@H]3O[C@@H]5CO[C@@H](C)O[C@H]5[C@H](O)[C@H]3O)[C@H]3COC(=O)[C@H]23)OCO4)cc(OC)c1O

From ChEMBL document CHEMBL3091352, “Synthesis and pharmacological evaluation of novel bisindolylalkanes analogues” (Bioorg Med Chem, 2013)
